Tested on: Spontaneously Hypertensive Rats
Assay: Spontaneously Hypertensive Rat (SHR) Test, hemodynamics in anesthetized rats
Format: in vivo, Spontaneously Hypertensive Rat (Sprague Dawley)
Conditions: for HR (Heart Rate: change from basal) / LVPT (time for Left Ventricular Pressure to decay from peak to 50%, % of basal) / MBP (Mean Blood Pressure: change from basal) / RT64 (change in time from maximal relaxation, % of basal) / dP/dT40 (change in rate of systolic pressure increase of left ventricle measured at 40 mm Hg from basal): anesthetized SHR
Experimental: Male Retired Breeder Spontaneously Hypertensive Rats (SHR) (Sprague Dawley, 250-350 g) are anesthetized by i.p. injection of Sodium Thiopental 50 mg/kg. A catheter is inserted into the duodenum for maintenance of anesthesia throughout the experiment. A tube is inserted through a lateral incision in the trachea. The left carotid artery is exposed and a Millar SPR-249 (2-F) pressure probe is inserted and passed into the left ventricle of the heart. Left ventricular pressure (LVP), the first differential of the LVP (+dP/dT,-dP/dT), the left ventricular end diastolic pressure (LVEDP) and the differential of the increase in LVP measured at a constant pressure of 40 mm Hg (dP/dT40) are measured via this probe. In addition to these parameters, two indices of myocardial diastolic relaxation are measured namely the RT64 (time in msec from the peak derivative of maximal relaxation to 64% of that value) and the Left Ventricular Pressure Time Constant (LVPT), the half-time for decay of the LVP from peak pressure to 50% of that pressure. […] Results also are shown graphically on a Gould RS3800 Recorder. A saline filled cannula is passed into the femoral vein for infusion of drugs and one is placed into the femoral artery for measurement and recording or arterial blood pressure (Statham P23Db pressure transducer). From this signal the diastolic, systolic and mean blood pressure are derived as well as the heart rate. After surgery, the preparation is left to stabilize for 45 minutes after which compounds, dissolved in polyethylene glycol, are slowly infused with a Sage Instruments Infusion pump into the femoral vein. […] After completion of the last infusion, hemodynamic parameters are observed over 30 min and then a standard dose of 3.0 mg/kg milrinone is infused (over 5 min) to test preparation responsiveness. In the SHR, the following results were obtained for several known cardiovascular agents and for the compound of Examples 10,11,15 and 16.

Row | SMILES | HR (Heart Rate: change from basal) (0.3 mg/kg i.v.) [%] | LVPT (time for Left Ventricular Pressure to decay from peak to 50%, % of basal) (0.3 mg/kg i.v.) [%] | MBP (Mean Blood Pressure: change from basal) (0.3 mg/kg i.v.) [%] | RT64 (change in time from maximal relaxation, % of basal) (0.3 mg/kg i.v.) [%] | dP/dT40 (change in rate of systolic pressure increase of left ventricle measured at 40 mm Hg from basal) (0.3 mg/kg i.v.) [%] | HR (Heart Rate: change from basal) (1.0 mg/kg i.v.) [%] | LVPT (time for Left Ventricular Pressure to decay from peak to 50%, % of basal) (1.0 mg/kg i.v.) [%] | MBP (Mean Blood Pressure: change from basal) (1.0 mg/kg i.v.) [%] | RT64 (change in time from maximal relaxation, % of basal) (1.0 mg/kg i.v.) [%] | dP/dT40 (change in rate of systolic pressure increase of left ventricle measured at 40 mm Hg from basal) (1.0 mg/kg i.v.) [%] | HR (Heart Rate: change from basal) (3.0 mg/kg i.v.) [%] | LVPT (time for Left Ventricular Pressure to decay from peak to 50%, % of basal) (3.0 mg/kg i.v.) [%] | MBP (Mean Blood Pressure: change from basal) (3.0 mg/kg i.v.) [%] | RT64 (change in time from maximal relaxation, % of basal) (3.0 mg/kg i.v.) [%] | dP/dT40 (change in rate of systolic pressure increase of left ventricle measured at 40 mm Hg from basal) (3.0 mg/kg i.v.) [%] | HR (Heart Rate: change from basal) (10 mg/kg i.v.) [%] | LVPT (time for Left Ventricular Pressure to decay from peak to 50%, % of basal) (10 mg/kg i.v.) [%] | MBP (Mean Blood Pressure: change from basal) (10 mg/kg i.v.) [%] | RT64 (change in time from maximal relaxation, % of basal) (10 mg/kg i.v.) [%] | dP/dT40 (change in rate of systolic pressure increase of left ventricle measured at 40 mm Hg from basal) (10 mg/kg i.v.) [%] | also measured
1 | COC(=O)C1=C(C)NC(C)=C(C(=O)OCCNC(=O)COc2ccc(-c3cc(C#N)c(=O)[nH]c3C)cc2)C1c1cccc(Cl)c1Cl (racemic) [Example 11, (±)-2,6-dimethyl-3-carbomethoxy-4-(2,3-dichlorophenvl)-5-{4-[1,2-dihydro-2-oxo-3-cyano-6-methyl-5(1H)-pyridyl]phenoxymethylenecarboxamindoethyloxycarbonyl}-1,4-dihydropyridine] | 2.8 | -14.4 | -12.5 | -15.7 | 4.5 | 1.7 | -22.4 | -16.3 | -22.8 | 6.9 | -0.5 | -34 | -36.7 | -26 | 3.5 | 0 | -31 | -45.8 | -34.5 | -9 | hemodynamic profile compared with Example 10 (in words) (i.v., SHR, compared with Example 10): A similar profile was observed
2 | COC(=O)C1=C(C)NC(C)=C(C(=O)OCCNC(=O)COc2ccc(-c3cc(C#N)c(=O)[nH]c3C)cc2)C1c1cccc([N+](=O)[O-])c1 (single isomer, unassigned; (+)) [Example 15, (+)-2,6-dimethyl-3-carbomethoxy-4-(3-nitrophenyl)-5-{4-[1,2-dihydro-2-oxo-3-cyano-b 6-methyl-5(1H)-pyridyl]phenoxymethylenecarboxamidoethyloxycarbonyl}-1,4-dihydropyridine] |  |  |  |  |  |  |  |  |  |  |  |  |  |  |  | -1.9 | -4.2 | -39.8 | 1.6 | 11.9 | effect on blood pressure (in words) (10 mg/kg i.v., SHR): hypotension; effect on dP/dT40 (in words) (10 mg/kg i.v., SHR): slight increase in dP/dT40; effect on heart rate (in words) (10 mg/kg i.v., SHR): no change in heart rate; effect on myocardial relaxation time constants (in words) (10 mg/kg i.v., SHR): little effect
3 | COC(=O)C1=C(C)NC(C)=C(C(=O)OCCNC(=O)COc2ccc(-c3cc(C#N)c(=O)[nH]c3C)cc2)C1c1cccc([N+](=O)[O-])c1 (single isomer, unassigned; (-)) [Example 16, (-)-2,6-dimethyl-3-carbomethoxy-4-(3-nitrophenyl)-5-{4-[1,2-dihydro-2-oxo-3-cyano-6-methyl-5(1H)-pyridyl]phenoxymethylenecarboxamidoethyloxycarbonyl}-1,4-dihydropyridine] |  |  |  |  |  |  |  |  |  |  |  |  |  |  |  | -1.5 | -18 | -34.9 | -17.6 | 5 | effect on blood pressure (in words) (10 mg/kg i.v., SHR): hypotension; effect on dP/dT40 (in words) (10 mg/kg i.v., SHR): slight increase in dP/dT40; effect on heart rate (in words) (10 mg/kg i.v., SHR): no change in heart rate; effect on myocardial relaxation time constants (in words) (10 mg/kg i.v., SHR): marked reduction in myocardial relaxation time constants
4 | NNc1nncc2ccccc12 [Hydralazine] | 0 | 4.1 | -1.2 | 2 | 0 | 8 | 2.3 | -17.8 | 0 | 3.4 | 8.8 | -7.8 | -37.5 | -12.5 | 0 | 17 | -21.9 | -48 | -22.6 | 6.9 | effect on blood pressure (in words) (0.3 to 10 mg/kg i.v., SHR): hypotension; effect on dP/dT40 (in words) (0.3 to 10 mg/kg i.v., SHR): little change in dP/dT40; effect on heart rate (in words) (0.3 to 10 mg/kg i.v., SHR): reflex tachycardia; effect on myocardial relaxation time constants (in words) (0.3 to 10 mg/kg i.v., SHR): reduction in myocardial relaxation time constants only at 3 and 10 mg/kg
5 | Cc1[nH]c(=O)c(C#N)cc1-c1ccncc1 [Milrinone] | 10 | -15.5 | -10 | -13.7 | 27 | 12.4 | -22 | -29 | -20.5 | 28.3 | 16.2 | -30 | -29 | -36 | 34 |  |  |  |  |  | effect on blood pressure (in words) (0.3 to 3 mg/kg i.v., SHR): hypotension; effect on dP/dT40 (in words) (0.3 to 3 mg/kg i.v., SHR): an increase in dP/dT40; effect on heart rate (in words) (0.3 to 3 mg/kg i.v., SHR): tachycardia; effect on myocardial relaxation time constants (in words) (0.3 to 3 mg/kg i.v., SHR): a decrease in myocardial relaxation time constants (increased rate of relaxation)
6 | COC(=O)C1=C(C)NC(C)=C(C(=O)OC)C1c1ccccc1[N+](=O)[O-] [Nifedipine] | 1 | 3 | -30 | -7 | 2 | -5 | -7 | -47.5 | -21 | -15.5 | -7.5 | -18.5 | -47.5 | -25 | -28.8 |  |  |  |  |  | HR (Heart Rate: change from basal) (0.1 mg/kg i.v.): 3%; LVPT (time for Left Ventricular Pressure to decay from peak to 50%, % of basal) (0.1 mg/kg i.v.): -8%; MBP (Mean Blood Pressure: change from basal) (0.1 mg/kg i.v.): -12%; RT64 (change in time from maximal relaxation, % of basal) (0.1 mg/kg i.v.): -7%; dP/dT40 (change in rate of systolic pressure increase of left ventricle measured at 40 mm Hg from basal) (0.1 mg/kg i.v.): 7.5%; effect on blood pressure (in words) (0.1 to 3 mg/kg i.v., SHR): hypotension; effect on dP/dT40 (in words) (0.1 to 3 mg/kg i.v., SHR): a depression of dP/dT40; effect on heart rate (in words) (0.1 to 3 mg/kg i.v., SHR): little change in heart rate; effect on myocardial relaxation time constants (in words) (0.1 to 3 mg/kg i.v., SHR): significant reduction of myocardial relaxation time constants only at the highest dose tested (3 mg/kg)

Source: US5100892A, “Dihydropyridine vasodilator agents” (Glaxo Inc., priority 1990, dated 1992)
